# Patent publication US10837015B2, “Targeting the glutamine to pyruvate pathway for treatment of oncogenic Kras-associated cancer” (Dana-Farber Cancer Institute, Inc., priority 2012, dated 2020)
# Legend:
# [1] = system: PDAC cells; test: Cell proliferation assay (crystal violet); assay type: cell-based, human; conditions: for PDAC growth (relative growth): 8988T cells treated with inhibitor, FIG. 7A/7B
# Protocol: (§1) Cells were plated in 24-well plates at 2,000 cells per well in 0.5 mL of media. To deprive Gln, cells were plated in complete culture medium (10 mM glucose and 2 mM Gln) which was exchanged with Gln-free culture medium supplemented with 10% dFBS the following day. Cell culture media was not changed throughout the course of the experiment. At the indicated time points, cells were fixed in 10% formalin and stained with 0.1% crystal violet. Dye was extracted with 10% acetic acid and the relative proliferation was determined by OD at 595 nm.
# [2] = system: HPDE (non-transformed human pancreatic ductal epithelial cells); test: Cell proliferation assay, non-transformed pancreatic ductal cells; assay type: cell-based; conditions: FIG. 30A/30B
# Protocol: as §1
# [3] = system: IMR90 (human diploid fibroblasts); test: Cell proliferation assay, diploid fibroblasts; assay type: cell-based; conditions: FIG. 30A/30B
# Protocol: as §1
# [4] = system: PDAC cells; test: Clonogenic assay; assay type: cell-based, human; conditions: for sensitivity of clonogenic growth upon Kras knockdown: 8988T cells expressing shKras; for sensitivity of clonogenic growth upon Kras knockdown / clonogenic growth: FIG. 34; for clonogenic growth: 8988T cells, control shRNA; for rescue of clonogenic growth upon Gln deprivation: Gln-free medium supplemented with metabolite, FIG. 5, 22, 26, 29
# Protocol: Cells were plated in 6-well plates at 300 cells per well in 2 mL of media. Cell culture media was not changed throughout the course of the experiment. After 7-10 days, colonies were fixed in 80% methanol and stained with 0.2% crystal violet.
# [5] = system: PDAC cells (8988T, Panc1); test: Sensitization of PDAC cells to ROS / cell viability with GLS inhibitors (Cell Titer Glo); assay type: cell-based, human; conditions: for relative cell viability (growth suppressive effect): 8988T or Panc1 cells, GLS inhibitor alone, FIG. 36; for relative cell viability, GLS inhibitor combined with H2O2: 8988T, Panc1, 968 or BPTES (100 nM) with increasing H2O2, FIG. 37, 38
# Protocol: PDAC cell lines were plated into 96-well plates at 10^3 cells/well in 200 μL of growth medium. The following day, growth medium was replaced with that containing GLS inhibitors and/or H2O2. Parallel plates were analyzed at 3, 6 and 9 days by Cell Titer Glo analysis (Promega), per the manufacturer's instruction. […] BPTES was a kind gift from Jaime Escobedo (Forma Therapeutics, Watertown, Mass.).
# [6] = system: 8988T cells; test: ROS quantification (DCFDA assay, flow cytometry); assay type: cell-based, human
# Protocol: The DCFDA assay was performed 24 hr after supplementing Gln-free media with either OAA (4 mM) or dimethyl malate (4 mM). Cells were incubated with 5 μM 2′,7′-dichlorodihydrofluorescein diacetate (DCFDA, Invitrogen) for 30 min. Excess DCFDA was removed by washing the cells twice with PBS, and labeled cells were then trypsinized, rinsed, and resuspended in PBS. Oxidation of DCFDA to the highly fluorescent 2′,7′-dichloro-fluorescein (DCF) is proportionate to ROS generation and was analyzed by flow cytometry.
structure (smiles),measurement,setting,value
"NOCC(=O)O [AOA, aminooxyacetate]",PDAC growth (relative growth),[1],robustly inhibited the growth
same,growth (relative growth) of HPDE cells,[2],no significant effect on growth
same,growth (relative growth) of IMR90 cells,[3],no significant effect on growth
same,sensitivity of clonogenic growth upon Kras knockdown,[4],significantly more resistant
same,clonogenic growth,[4],significantly inhibited clonogenic growth
O=C(Cc1ccccc1)Nc1nnc(CCSCCc2nnc(NC(=O)Cc3ccccc3)s2)s1 [BPTES],relative cell viability (growth suppressive effect),[5],growth suppressive effect
same,"relative cell viability, GLS inhibitor combined with H2O2",[5],dramatically augmented
"O=C(O[C@@H]1Cc2c(O)cc(O)cc2O[C@@H]1c1cc(O)c(O)c(O)c1)c1cc(O)c(O)c(O)c1 [EGCG, Epigallocatechin Gallate]",PDAC growth (relative growth),[1],little effect
same,growth (relative growth) of HPDE cells,[2],significantly sensitive
same,sensitivity of clonogenic growth upon Kras knockdown,[4],sensitive
same,clonogenic growth,[4],minimal effects
"N[C@@H](CCC(=O)N[C@@H](CS)C(=O)NCC(=O)O)C(=O)O [GSH, reduced glutathione]",rescue of clonogenic growth upon Gln deprivation,[4],dramatically rescued the clonogenic survival
CN(C)c1ccc(C2Nc3ccc4ccccc4c3C3=C2C(=O)CC(C)(C)C3)cc1Br (stereo not shown) [compound 968],relative cell viability (growth suppressive effect),[5],growth suppressive effect
same,"relative cell viability, GLS inhibitor combined with H2O2",[5],dramatically augmented
COC(=O)CCC(=O)C(=O)OC [dimethyl αKG],rescue of clonogenic growth upon Gln deprivation,[4],did not restore growth
COC(=O)CC(O)C(=O)OC (stereo not shown) [dimethyl-malate],rescue of PDAC cell growth upon GOT1 knockdown,"[1]; 8988T cells expressing shGOT1, 4 mM supplement, FIG. 28",partially rescue PDAC cell growth
same,rescue of cell proliferation upon Gln deprivation,"[1]; Gln-free medium supplemented with metabolite, FIG. 6, 27",partially rescue PDAC cell growth
same,ROS levels (DCFDA signal) upon GOT1 knockdown,"[6]; 8988T cells expressing shGOT1, medium supplementation",rescued the oxidative stress
same,ROS levels (DCFDA signal) upon Gln deprivation,"[6]; Gln-free media supplemented 24 hr, 4 mM",rescued the oxidative stress
